Assay results published in patent US20260097090A1, “HERBAL MEDICINE EXTRACTS RM01 AND USES AND METHODS OF PREPARATION THEREOF” (RenuMemo Therapeutics LLC, priority 2022, published 2026).

Test system: patient with severe Alzheimer's disease
Experiment: Human efficacy case study, Mini Mental State Examination (MMSE) and family report
Assay type: in vivo
Conditions: same patient, long time taking Memantine and Donepezil before RM01; drugs stopped before the visit
Description: The patient has been taking Memantine and Donepezil to treat their disease. However, both drugs were stopped before the visit.
The patient was evaluated by Mini Mental State Examination (MMSE) during the first visit.
The patient was given the herbal extract composition RM01 twice a day every day, for five weeks. Family member assisted all the process.
The patient was re-evaluated of MMSE after 1 week of treatment. In the meantime, the family member was questioned on patient daily life, regarding sleep, mood, reaction to people, behavioral and psychological symptoms.
The treatment and re-evaluation lasted 5 weeks.

| Compound | patient symptom improvement on prior medication, informed by the patient's spouse |
| --- | --- |
| COc1cc2c(cc1OC)C(=O)C(CC1CCN(Cc3ccccc3)CC1)C2 (centres unmarked) [Donepezil] | not much effect |
| CC12CC3CC(C)(C1)CC(N)(C3)C2 [Memantine] | not much effect |
